Assay results from US8338565B2, “Macrocyclic compounds for inhibition of tumor necrosis factor alpha” (Ensemble Therapeutics Corporation, priority 2008, dated 2012).

Columns and labels:
rat paw edema model [1] = experiment: Rat paw edema model (carrageenan), anti-inflammatory activity; format: in vivo, Sprague-Dawley (SD) rats
Procedure: Compounds 3, 4, 10 and 202 were tested in a rat paw edema model to determine anti-inflammatory activity. Seven groups (one for Vehicle A [15 mL PEG400, 3 mL Graves Grain alcohol (190 proof), 1.8 mL dimethylacetamide and 10.2 mL deionized water] alone as a negative control, one for Vehicle B [0.1M NaHCO3] alone as a negative control, one for each of the four test compounds dissolved in Vehicle A, and one for indomethacin dissolved in Vehicle B as a positive control), each group containing six Sprague-Dawley (SD) rats (180-200 g) randomized by weight. Initial paw volumes were measured by placing the right hind limb of the rat up to the top of the hock in a beaker of water sitting on a scale that had been tared to zero and recording the readout.
Rats were pre-treated with either i) one of the test compounds, or ii) a positive or negative control. Vehicle A alone and test compound dissolved in Vehicle A (Compound 3-1.0 mg/kg; Compound 4-0.4 mg/kg; Compound 10-0.5 mg/kg; Compound 202-0.3 mg/kg) were administered by intravenous injection. Vehicle B alone and indomethacin (5 mg/kg in 0.1M NaHCO3) was administered by intraperitoneal injection. Thirty minutes after this pretreatment, rats were anesthetized and injected with 0.1 mL of carrageenan (10 mg/mL in water) in the subplantar region of the right hind foot using a ½ inch 26 gauge needle attached to a 1 cc syringe.
At 2, 4 and 6 hours post-carrageenan injection, the right hind foot of each rat was measured for paw volume as described above.
We next investigated the effect of varying intravenous doses of Compound 202 (0.05, 0.10, 0.30, and 1.00 mg/kg) in the same model using the same protocol (6 rats per group). […] We also investigated the affect of oral dosing (10 mg/kg) of Compound 202 in the same model. For oral dosing, a 2.5 mg/mL suspension of Compound 202 was prepared in Vehicle A. Rats were orally administered 4 mL/kg of that suspension.

[2] = tested on: TNF-α (degradation of IkB in HeLa cells or A431 cells); experiment: Human cell-based assay: inhibition of TNF-α induced degradation of IkB
rat paw edema model [3] = experiment: Rat paw edema model (carrageenan), anti-inflammatory activity; format: in vivo, Sprague-Dawley (SD) rats; settings: Table 8; 3 mg/kg PO; 4 h post-carrageenan
[4] = target: T1, TNFα / TNFα receptor (TNFα R1/Fc) (Homo sapiens, UniProt P01375); experiment: Inhibition of binding of TNFα to the TNFα receptor (plate ELISA competition); settings: Activity (IC50, inhibition of TNFα binding to TNFα R1/Fc), Table 2
T1 construct: purchased R&D Systems
Outline: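 Compound dilutions were preincubated 30 min at RT with 8.33 nM TNFα R1/Fc in PBST with 2% DMSO, then added to wells coated with 15 nM TNFα for 30 min. Bound receptor was detected with HRP anti-human Fc and TMB, read as A450.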

T1 sequence (P01375 77-233 limits assumed, species assumed): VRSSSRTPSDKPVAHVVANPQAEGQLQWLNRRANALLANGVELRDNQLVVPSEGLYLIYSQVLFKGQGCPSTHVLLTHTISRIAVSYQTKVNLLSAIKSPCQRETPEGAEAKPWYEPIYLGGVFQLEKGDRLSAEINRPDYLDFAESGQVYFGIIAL

## O=C1COc2ccc(cc2)C[C@@H](C(=O)NCS(=O)(=O)O)NC(=O)[C@H](CCc2ccccc2)NC(=O)[C@@H](Cc2ccc(-c3ccccc3)cc2)NC(=O)[C@H](Cc2cccs2)N1 [Compound 482]
Rat paw edema model [1]; Table 5, 1 mg/kg IV, 2 h post-carrageenan
  Change in Paw Volume: 0.73 ± 0.19 mL
Rat paw edema model [1]; Table 5, 1 mg/kg IV, 4 h post-carrageenan
  Change in Paw Volume: 0.99 ± 0.34 mL
Rat paw edema model [1]; Table 5, 1 mg/kg IV, 6 h post-carrageenan
  Change in Paw Volume: 0.86 ± 0.27 mL
Rat paw edema model [1]; Table 8, 3 mg/kg PO, 2 h post-carrageenan
  Change in Paw Volume: 1.13 ± 0.15 mL
Rat paw edema model [1]; Table 8, 3 mg/kg PO, 6 h post-carrageenan
  Change in Paw Volume: 1.14 ± 0.10 mL
[2]; read-out: Inhibition at Various Compound Concentrations, 5 μM
  inhibition at 5 µM: 10 to 50%
[2]; read-out: Inhibition at Various Compound Concentrations, 10 μM
  inhibition at 10 µM: 10 to 50%
Rat paw edema model [3]
  Change in Paw Volume: 1.18 ± 0.10 mL
[4]
  IC50: < 10 µM
